Assay results reported in patent publication US20220402925A1, “COMPOUNDS AND METHODS FOR THE TREATMENT OF CYSTIC FIBROSIS” (Flatley Discovery Lab, LLC, priority 2019, published 2022).

These compounds were tested against T1, F508del CFTR (Homo sapiens, UniProt P13569, DEL508-508) (assay: Equivalent current assay in primary CF airway epithelial cells (Corrector Activity, NAUC normalized to 3 μM VX809)). Conditions: NAUC as % of positive control (VX-809).
T1 construct: Primary CF airway epithelial cells were obtained from the UNC Cystic Fibrosis Tissue Procurement and Cell Culture Core; host or cells: primary CF airway epithelial cells
T1 sequence (P13569 with tags, fused parts or gaps DEL508-508): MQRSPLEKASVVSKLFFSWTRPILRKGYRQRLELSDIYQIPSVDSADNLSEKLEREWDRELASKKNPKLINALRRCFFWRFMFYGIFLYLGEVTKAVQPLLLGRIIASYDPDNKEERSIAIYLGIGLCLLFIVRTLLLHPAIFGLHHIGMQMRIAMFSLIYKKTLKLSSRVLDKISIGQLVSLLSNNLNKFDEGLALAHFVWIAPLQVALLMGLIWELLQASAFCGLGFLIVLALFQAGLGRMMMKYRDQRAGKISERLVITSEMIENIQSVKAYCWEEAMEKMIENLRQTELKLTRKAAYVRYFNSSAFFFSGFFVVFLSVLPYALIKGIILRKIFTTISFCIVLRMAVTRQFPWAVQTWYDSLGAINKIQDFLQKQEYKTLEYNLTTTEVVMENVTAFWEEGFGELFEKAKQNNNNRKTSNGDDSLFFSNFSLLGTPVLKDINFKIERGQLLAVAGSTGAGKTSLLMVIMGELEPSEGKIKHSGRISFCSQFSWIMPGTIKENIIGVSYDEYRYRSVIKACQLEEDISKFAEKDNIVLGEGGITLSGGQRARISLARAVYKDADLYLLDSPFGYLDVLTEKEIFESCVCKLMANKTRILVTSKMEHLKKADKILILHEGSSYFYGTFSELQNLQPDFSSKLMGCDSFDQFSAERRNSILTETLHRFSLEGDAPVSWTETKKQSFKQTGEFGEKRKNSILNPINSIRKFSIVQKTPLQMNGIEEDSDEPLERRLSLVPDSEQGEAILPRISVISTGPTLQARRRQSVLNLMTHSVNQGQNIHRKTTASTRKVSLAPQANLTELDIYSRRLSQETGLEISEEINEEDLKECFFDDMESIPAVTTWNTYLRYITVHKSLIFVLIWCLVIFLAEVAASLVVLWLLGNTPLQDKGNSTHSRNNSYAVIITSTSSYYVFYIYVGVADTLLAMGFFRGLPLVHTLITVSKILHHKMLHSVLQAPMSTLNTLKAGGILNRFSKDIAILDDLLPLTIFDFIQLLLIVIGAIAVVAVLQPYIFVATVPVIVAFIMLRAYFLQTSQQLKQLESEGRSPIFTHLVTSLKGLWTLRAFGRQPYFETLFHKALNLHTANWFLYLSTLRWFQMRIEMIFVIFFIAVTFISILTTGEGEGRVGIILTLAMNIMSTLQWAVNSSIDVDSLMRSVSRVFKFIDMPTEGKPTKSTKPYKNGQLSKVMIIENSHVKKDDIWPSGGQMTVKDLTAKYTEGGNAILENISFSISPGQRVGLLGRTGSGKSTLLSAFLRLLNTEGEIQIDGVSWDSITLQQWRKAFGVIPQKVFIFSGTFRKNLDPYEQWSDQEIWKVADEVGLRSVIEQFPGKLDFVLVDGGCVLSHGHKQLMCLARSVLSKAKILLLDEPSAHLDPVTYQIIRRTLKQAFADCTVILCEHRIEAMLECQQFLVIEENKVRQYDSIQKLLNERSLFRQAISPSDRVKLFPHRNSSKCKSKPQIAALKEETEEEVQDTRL
Format: cell-based
Procedure, shortened: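 Differentiated primary CF airway cells treated basolaterally 24 h at 37° C with compound (0.1% DMSO). Equivalent current recorded after 5 μM benzamil, stimulation with 10 μM forskolin plus 1 μM VX-770 or 3 μM FDL176, and block by 20 μM CFTR-172; vehicle-subtracted AUC normalized to 3 μM VX809; EC50 from sigmoid fit, Hill slope 1.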
In the case of CC(C)Oc1cc(-c2nn(CC(=O)N(c3ccc4c(c3)OC(F)(F)O4)C3CC3)c(=O)c3nc[nH]c23)cc(C(F)(F)F)c1 [Example 377], the “Corr Activity (NAUC)” value is reported as “+ (NAUC<40% of positive control)”. For O=C(Cn1nc(-c2cc(F)cc(Cl)c2)c2[nH]cnc2c1=O)N(c1ccc2c(c1)OC(F)(F)O2)C1CC1 [Example 378], the “Corr Activity (NAUC)” value was “++ (NAUC 70-40% of positive control)”. COc1cc(Cl)cc(-c2nn(CC(=O)N(c3ccc4c(c3)OC(F)(F)O4)C3CC3)c(=O)c3nc[nH]c23)c1 [Example 379] was tested, and the “Corr Activity (NAUC)” value was “++ (NAUC 70-40% of positive control)”. With O=C(Cn1nc(-c2cc(F)cc(F)c2)c2[nH]cnc2c1=O)N(c1ccc2c(c1)OC(F)(F)O2)C1CC1 [Example 380] the “Corr Activity (NAUC)” value was “++ (NAUC 70-40% of positive control)”. In the case of COc1cc(OC)cc(-c2nn(CC(=O)N(c3ccc4c(c3)OC(F)(F)O4)C3CC3)c(=O)c3nc[nH]c23)c1 [Example 381], the “Corr Activity (NAUC)” value is reported as “+ (NAUC<40% of positive control)”. With O=C(Cn1nc(-c2cc(C(F)(F)F)cc(C(F)(F)F)c2)c2[nH]cnc2c1=O)N(c1ccc2c(c1)OC(F)(F)O2)C1CC1 [Example 382] the “Corr Activity (NAUC)” value was “+ (NAUC<40% of positive control)”. In the case of COc1cc(F)cc(-c2nn(CC(=O)N(c3ccc4c(c3)OC(F)(F)O4)C3CC3)c(=O)c3nc[nH]c23)c1 [Example 383], the “Corr Activity (NAUC)” value is reported as “++ (NAUC 70-40% of positive control)”. CC(C)COc1cc(F)cc(-c2nn(CC(=O)N(c3ccc4c(c3)OC(F)(F)O4)C3CC3)c(=O)c3nc[nH]c23)c1 [Example 384] was tested, and the “Corr Activity (NAUC)” value was “++ (NAUC 70-40% of positive control)”. In the case of Cc1cc(F)cc(-c2nn(CC(=O)N(c3ccc4c(c3)OC(F)(F)O4)C3CC3)c(=O)c3nc[nH]c23)c1 [Example 385], the “Corr Activity (NAUC)” value is reported as “++ (NAUC 70-40% of positive control)”. For COc1cc(-c2nn(CC(=O)N(c3ccc4c(c3)OC(F)(F)O4)C3CC3)c(=O)c3nc[nH]c23)cc(C(F)(F)F)c1 [Example 387], the “Corr Activity (NAUC)” value was “+ (NAUC<40% of positive control)”. For COC(=O)c1cc(Cl)cc(-c2nn(CC(=O)N(c3ccc4c(c3)OC(F)(F)O4)C3CC3)c(=O)c3nc[nH]c23)c1 [Example 390], the “Corr Activity (NAUC)” value was “+ (NAUC<40% of positive control)”. With O=C(Cn1nc(-c2cc(F)cc(C(F)(F)F)c2)c2[nH]cnc2c1=O)N(c1ccc2c(c1)OC(F)(F)O2)C1CC1 [Example 391] the “Corr Activity (NAUC)” value was “++ (NAUC 70-40% of positive control)”. Cc1cc(Cl)cc(-c2nn(CC(=O)N(c3ccc4c(c3)OC(F)(F)O4)C3CC3)c(=O)c3nc[nH]c23)c1 [Example 392] was tested, and the “Corr Activity (NAUC)” value was “+++ (NAUC>70% of positive control)”. With O=C(Cn1nc(-c2cc(F)cc(OCC(F)(F)F)c2)c2[nH]cnc2c1=O)N(c1ccc2c(c1)OC(F)(F)O2)C1CC1 [Example 393] the “Corr Activity (NAUC)” value was “++ (NAUC 70-40% of positive control)”. With COc1cc(C)cc(-c2nn(CC(=O)N(c3ccc4c(c3)OC(F)(F)O4)C3CC3)c(=O)c3nc[nH]c23)c1 [Example 395] the “Corr Activity (NAUC)” value was “+ (NAUC<40% of positive control)”. With O=C(Cn1nc(-c2cc(Cl)cc(OCc3ccccc3)c2)c2[nH]cnc2c1=O)N(c1ccc2c(c1)OC(F)(F)O2)C1CC1 [Example 396] the “Corr Activity (NAUC)” value was “+++ (NAUC>70% of positive control)”. For COc1cc(OC(F)(F)F)cc(-c2nn(CC(=O)N(c3ccc4c(c3)OC(F)(F)O4)C3CC3)c(=O)c3nc[nH]c23)c1 [Example 397], the “Corr Activity (NAUC)” value was “+ (NAUC<40% of positive control)”. COCCOc1cc(Cl)cc(-c2nn(CC(=O)N(c3ccc4c(c3)OC(F)(F)O4)C3CC3)c(=O)c3nc[nH]c23)c1 [Example 399] was tested, and the “Corr Activity (NAUC)” value was “++ (NAUC 70-40% of positive control)”. With O=C(Cn1nc(-c2cc(Cl)cc(N3CCCC3)c2)c2[nH]cnc2c1=O)N(c1ccc2c(c1)OC(F)(F)O2)C1CC1 [Example 400] the “Corr Activity (NAUC)” value was “+++ (NAUC>70% of positive control)”. O=C(Cn1nc(-c2cc(Cl)cc(C(F)(F)F)c2)c2[nH]cnc2c1=O)N(c1ccc2c(c1)OC(F)(F)O2)C1CC1 [Example 401] was tested, and the “Corr Activity (NAUC)” value was “++ (NAUC 70-40% of positive control)”. Cc1cc(-c2nn(CC(=O)N(c3ccc4c(c3)OC(F)(F)O4)C3CC3)c(=O)c3nc[nH]c23)cc(C(F)(F)F)c1 [Example 402] was tested, and the “Corr Activity (NAUC)” value was “++ (NAUC 70-40% of positive control)”. With N#Cc1cc(-c2nn(CC(=O)N(c3ccc4c(c3)OC(F)(F)O4)C3CC3)c(=O)c3nc[nH]c23)cc(C(F)(F)F)c1 [Example 404] the “Corr Activity (NAUC)” value was “++ (NAUC 70-40% of positive control)”. With O=C(Cn1nc(-c2cc(Cl)cc(CO)c2)c2[nH]cnc2c1=O)N(c1ccc2c(c1)OC(F)(F)O2)C1CC1 [Example 405] the “Corr Activity (NAUC)” value was “+ (NAUC<40% of positive control)”. With O=C(Cn1nc(-c2cc(O)cc(OC(F)(F)F)c2)c2[nH]cnc2c1=O)N(c1ccc2c(c1)OC(F)(F)O2)C1CC1 [Example 407] the “Corr Activity (NAUC)” value was “+ (NAUC<40% of positive control)”. N#Cc1cc(OC(F)(F)F)cc(-c2nn(CC(=O)N(c3ccc4c(c3)OC(F)(F)O4)C3CC3)c(=O)c3nc[nH]c23)c1 [Example 408] was tested, and the “Corr Activity (NAUC)” value was “++ (NAUC 70-40% of positive control)”. COc1cc(C#N)cc(-c2nn(CC(=O)N(c3ccc4c(c3)OC(F)(F)O4)C3CC3)c(=O)c3nc[nH]c23)c1 [Example 409] was tested, and the “Corr Activity (NAUC)” value was “++ (NAUC 70-40% of positive control)”. With COc1ccc2cc(-c3nn(CC(=O)N(c4ccc5c(c4)OC(F)(F)O5)C4CC4)c(=O)c4nc[nH]c34)ccc2c1 [Example 412] the “Corr Activity (NAUC)” value was “++ (NAUC 70-40% of positive control)”. O=C(Cn1nc(-c2ccc3c(ccn3S(=O)(=O)c3ccccc3)c2)c2[nH]cnc2c1=O)N(c1ccc2c(c1)OC(F)(F)O2)C1CC1 [Example 423] was tested, and the “Corr Activity (NAUC)” value was “+ (NAUC<40% of positive control)”. Cn1c2ccccc2c2cc(-c3nn(CC(=O)N(c4ccc5c(c4)OC(F)(F)O5)C4CC4)c(=O)c4nc[nH]c34)ccc21 [Example 425] was tested, and the “Corr Activity (NAUC)” value was “+ (NAUC<40% of positive control)”. O=C1Cc2ccc(-c3nn(CC(=O)N(c4ccc5c(c4)OC(F)(F)O5)C4CC4)c(=O)c4nc[nH]c34)cc2N1 [Example 426] was tested, and the “Corr Activity (NAUC)” value was “+ (NAUC<40% of positive control)”. For CC(C)n1ncc2cc(-c3nn(CC(=O)N(c4ccc5c(c4)OC(F)(F)O5)C4CC4)c(=O)c4nc[nH]c34)ccc21 [Example 430], the “Corr Activity (NAUC)” value was “+ (NAUC<40% of positive control)”. In the case of CN1C(=O)Cc2ccc(-c3nn(CC(=O)N(c4ccc5c(c4)OC(F)(F)O5)C4CC4)c(=O)c4nc[nH]c34)cc21 [Example 432], the “Corr Activity (NAUC)” value is reported as “+ (NAUC<40% of positive control)”. For O=C(Cn1nc(-c2ccc3c(c2)ncn3-c2ccccc2)c2[nH]cnc2c1=O)N(c1ccc2c(c1)OC(F)(F)O2)C1CC1 [Example 433], the “Corr Activity (NAUC)” value was “+ (NAUC<40% of positive control)”. With N#Cc1cc(-c2nn(CC(=O)N(c3ccc4c(c3)OC(F)(F)O4)C3CC3)c(=O)c3nc[nH]c23)ccc1Cl [Example 445] the “Corr Activity (NAUC)” value was “+++ (NAUC>70% of positive control)”. With CC(C)Oc1ccc(-c2nn(CC(=O)N(c3ccc4c(c3)OC(F)(F)O4)C3CC3)c(=O)c3nc[nH]c23)cc1Cl [Example 446] the “Corr Activity (NAUC)” value was “+++ (NAUC>70% of positive control)”. For O=C(Cn1nc(-c2ccc(C(F)(F)F)c(Cl)c2)c2[nH]cnc2c1=O)N(c1ccc2c(c1)OC(F)(F)O2)C1CC1 [Example 448], the “Corr Activity (NAUC)” value was “+ (NAUC<40% of positive control)”. For O=C(Cn1nc(-c2ccc(OCC(F)(F)F)c(F)c2)c2[nH]cnc2c1=O)N(c1ccc2c(c1)OC(F)(F)O2)C1CC1 [Example 457], the “Corr Activity (NAUC)” value was “+ (NAUC<40% of positive control)”. With COc1ccc(-c2nn(CC(=O)N(c3ccc4c(c3)OC(F)(F)O4)C3CC3)c(=O)c3nc[nH]c23)cc1C#N [Example 464] the “Corr Activity (NAUC)” value was “+++ (NAUC>70% of positive control)”. With O=C(Cn1nc(-c2ccc(OCC3CC3)c(Cl)c2)c2[nH]cnc2c1=O)N(c1ccc2c(c1)OC(F)(F)O2)C1CC1 [Example 465] the “Corr Activity (NAUC)” value was “++ (NAUC 70-40% of positive control)”. With N#Cc1cc(-c2nn(CC(=O)N(c3ccc4c(c3)OC(F)(F)O4)C3CC3)c(=O)c3nc[nH]c23)ccc1N1CCCC1 [Example 470] the “Corr Activity (NAUC)” value was “+++ (NAUC>70% of positive control)”. For N#Cc1cc(-c2nn(CC(=O)N(c3ccc4c(c3)OC(F)(F)O4)C3CC3)c(=O)c3nc[nH]c23)ccc1OC(F)(F)F [Example 483], the “Corr Activity (NAUC)” value was “++ (NAUC 70-40% of positive control)”. With CN(C)c1ccc(-c2nn(CC(=O)N(c3ccc4c(c3)OC(F)(F)O4)C3CC3)c(=O)c3nc[nH]c23)cc1C#N [Example 486] the “Corr Activity (NAUC)” value was “+++ (NAUC>70% of positive control)”. In the case of N#Cc1cc(-c2nn(CC(=O)N(c3ccc4c(c3)OC(F)(F)O4)C3CC3)c(=O)c3nc[nH]c23)ccc1N1CCC1 [Example 487], the “Corr Activity (NAUC)” value is reported as “++ (NAUC 70-40% of positive control)”. With N#Cc1cc(-c2nn(CC(=O)N(c3ccc4c(c3)OC(F)(F)O4)C3CC3)c(=O)c3nc[nH]c23)ccc1N1CCC(F)C1 (centres unmarked) [Example 488] the “Corr Activity (NAUC)” value was “+++ (NAUC>70% of positive control)”. With N#Cc1cc(-c2nn(CC(=O)N(c3ccc4c(c3)OC(F)(F)O4)C3CC3)c(=O)c3nc[nH]c23)ccc1N1CCC(F)(F)C1 [Example 489] the “Corr Activity (NAUC)” value was “+++ (NAUC>70% of positive control)”. For O=C(Cn1nc(-c2ccc(N3CCCC3)cc2)c2[nH]cnc2c1=O)N(c1ccc2c(c1)OC(F)(F)O2)C1CC1 [Example 490], the “Corr Activity (NAUC)” value was “+ (NAUC<40% of positive control)”. N#Cc1cc(-c2nn(CC(=O)N(c3ccc4c(c3)OC(F)(F)O4)C3CC3)c(=O)c3nc[nH]c23)ccc1N1CCCCC1 [Example 491] was tested, and the “Corr Activity (NAUC)” value was “++ (NAUC 70-40% of positive control)”.
